Laboratory results published in US20250296922A1, “POLYSUBSTITUTED PYRROLIDINE DERIVATIVE, PREPARATION METHOD THEREFOR AND USE THEREOF” (SHANGHAI WENNAI THERAPEUTICS CO LTD, priority 2023, published 2025).

Legend:
Nav1.8 sodium channel = Nav1.8 sodium channel (Homo sapiens (Human), UniProt Q9Y5Y9); test: NaV1.8 blocking activity, manual patch clamp; format: cell-based; details: CHO cell line stably expressing Nav1.8
[1] = Stability of the compound in liver microsomes (human); format: in vitro ADME; details: 1 μM compound, 0.5 mg protein/mL; for Human liver microsomes T½ / half-life at 1 μM: 37° C.; for half-life at 1 μM: human, liver microsomes, read-out: Human liver microsomes T½
Method: (§1) 2.1.1. working solution: 5 μL of test or control compound stock solution (10 mM DMSO solution) was diluted with 495 μL of acetonitrile (ACN) to obtain an intermediate stock solution (100 μM, 99% ACN).
(§2) 2.2.2 Preparation procedure: An appropriate amount of NADPH powder was weighed and diluted with 10 mM MgCl2 buffer (working solution concentration: 10 mM; final reaction system concentration: 1 mM).
(§3) 2.3.2 Preparation procedure: The appropriate concentration of liver microsomal working solution was prepared in 100 mM potassium phosphate buffer;
(§4) Acetonitrile (ACN) solution at 4° C. containing 200 ng/mL of Tolbutamide and 200 ng/ml of labetalol as internal standards 2.5. Operation steps:
(§5) 2.5.2. Diluting liver microsomes with 100 mM potassium phosphate buffer to a concentration of 0.56 mg/mL.
(§6) 2.5.3. Transferring 445 μL of liver microsomal working solution (0.56 mg/mL) to pre-heated incubation plates T60 and NCF60, and then pre-heating the incubation plates T60 and NCF60 for 10 minutes at 37° C. with shaking. Transferring 54 μL of liver microsomes to each well of the blank plate, adding 6 μL of NAPDH coenzyme solution to the blank plate, and finally transferring 180 μL of termination solution to the blank plate.
(§7) 2.5.4 Adding 5 μL of compound working solution (100 μM) to the incubation plates T60 and NCF60 containing liver microsomes and mixing three times.
(§8) 2.5.5. Adding 50 μL of buffer to the NCF60 plate and mixing three times, starting the timer and incubating at 37° C. for 60 min with the plate shaking.
(§9) 2.5.6. Adding 180 μL of quenching solution and 6 μL of NAPDH coenzyme working solution sequentially to quenching plate TO, making sure that the plate was cold to prevent volatilization of the incubation solution.
(§10) 2.5.7. For plate T60, mixing well three times and immediately transferring 54 μL of mixing solution (0-min time point) to quenching plate TO, then adding 44 μL of NAPDH coenzyme working solution to incubation plate T60. Starting the timer:
(§11) 2.5.8. At the 5, 15, 30, 45 and 60 minute time points, adding 180 μL of quenching solution to the quenching plate and transferring 60 μL of reaction solution from the T60 plate to the quenching plate at each time point.
(§12) 2.5.9. For NCF60 plates, mixing well and transferring 60 μL of reaction solution from the NCF60 incubating solution to a quenching plate containing 180 μL of quenching solution at 60th minute.
(§13) 2.5.10. All plates were mixed on a shaker for 10 min and then centrifuged at 4000 rpm at 4° C. for 20 min.
(§14) 2.5.11. Transferring 80 μL of supernatant to 240 μL of HPLC water and mixing on a
(§15) 2.6.1. Calculating t1/2 and Clint (mic) values based on first-order elimination kinetics: […]

[2] = Stability of the compound in liver microsomes (mouse); format: in vitro ADME, CD-1 mouse; details: 1 μM compound, 0.5 mg protein/mL; for Mouse liver microsomes T½ / half-life at 1 μM: 37° C.; for half-life at 1 μM: CD-1, mouse, liver microsomes, read-out: Mouse liver microsomes T½
Method: as §1, §2, §3, §4, §5, §6, §7, §8, §9, §10, §11, §12, §13, §14, §15

Nav1.8 sodium channel, sequence (Q9Y5Y9 whole entry): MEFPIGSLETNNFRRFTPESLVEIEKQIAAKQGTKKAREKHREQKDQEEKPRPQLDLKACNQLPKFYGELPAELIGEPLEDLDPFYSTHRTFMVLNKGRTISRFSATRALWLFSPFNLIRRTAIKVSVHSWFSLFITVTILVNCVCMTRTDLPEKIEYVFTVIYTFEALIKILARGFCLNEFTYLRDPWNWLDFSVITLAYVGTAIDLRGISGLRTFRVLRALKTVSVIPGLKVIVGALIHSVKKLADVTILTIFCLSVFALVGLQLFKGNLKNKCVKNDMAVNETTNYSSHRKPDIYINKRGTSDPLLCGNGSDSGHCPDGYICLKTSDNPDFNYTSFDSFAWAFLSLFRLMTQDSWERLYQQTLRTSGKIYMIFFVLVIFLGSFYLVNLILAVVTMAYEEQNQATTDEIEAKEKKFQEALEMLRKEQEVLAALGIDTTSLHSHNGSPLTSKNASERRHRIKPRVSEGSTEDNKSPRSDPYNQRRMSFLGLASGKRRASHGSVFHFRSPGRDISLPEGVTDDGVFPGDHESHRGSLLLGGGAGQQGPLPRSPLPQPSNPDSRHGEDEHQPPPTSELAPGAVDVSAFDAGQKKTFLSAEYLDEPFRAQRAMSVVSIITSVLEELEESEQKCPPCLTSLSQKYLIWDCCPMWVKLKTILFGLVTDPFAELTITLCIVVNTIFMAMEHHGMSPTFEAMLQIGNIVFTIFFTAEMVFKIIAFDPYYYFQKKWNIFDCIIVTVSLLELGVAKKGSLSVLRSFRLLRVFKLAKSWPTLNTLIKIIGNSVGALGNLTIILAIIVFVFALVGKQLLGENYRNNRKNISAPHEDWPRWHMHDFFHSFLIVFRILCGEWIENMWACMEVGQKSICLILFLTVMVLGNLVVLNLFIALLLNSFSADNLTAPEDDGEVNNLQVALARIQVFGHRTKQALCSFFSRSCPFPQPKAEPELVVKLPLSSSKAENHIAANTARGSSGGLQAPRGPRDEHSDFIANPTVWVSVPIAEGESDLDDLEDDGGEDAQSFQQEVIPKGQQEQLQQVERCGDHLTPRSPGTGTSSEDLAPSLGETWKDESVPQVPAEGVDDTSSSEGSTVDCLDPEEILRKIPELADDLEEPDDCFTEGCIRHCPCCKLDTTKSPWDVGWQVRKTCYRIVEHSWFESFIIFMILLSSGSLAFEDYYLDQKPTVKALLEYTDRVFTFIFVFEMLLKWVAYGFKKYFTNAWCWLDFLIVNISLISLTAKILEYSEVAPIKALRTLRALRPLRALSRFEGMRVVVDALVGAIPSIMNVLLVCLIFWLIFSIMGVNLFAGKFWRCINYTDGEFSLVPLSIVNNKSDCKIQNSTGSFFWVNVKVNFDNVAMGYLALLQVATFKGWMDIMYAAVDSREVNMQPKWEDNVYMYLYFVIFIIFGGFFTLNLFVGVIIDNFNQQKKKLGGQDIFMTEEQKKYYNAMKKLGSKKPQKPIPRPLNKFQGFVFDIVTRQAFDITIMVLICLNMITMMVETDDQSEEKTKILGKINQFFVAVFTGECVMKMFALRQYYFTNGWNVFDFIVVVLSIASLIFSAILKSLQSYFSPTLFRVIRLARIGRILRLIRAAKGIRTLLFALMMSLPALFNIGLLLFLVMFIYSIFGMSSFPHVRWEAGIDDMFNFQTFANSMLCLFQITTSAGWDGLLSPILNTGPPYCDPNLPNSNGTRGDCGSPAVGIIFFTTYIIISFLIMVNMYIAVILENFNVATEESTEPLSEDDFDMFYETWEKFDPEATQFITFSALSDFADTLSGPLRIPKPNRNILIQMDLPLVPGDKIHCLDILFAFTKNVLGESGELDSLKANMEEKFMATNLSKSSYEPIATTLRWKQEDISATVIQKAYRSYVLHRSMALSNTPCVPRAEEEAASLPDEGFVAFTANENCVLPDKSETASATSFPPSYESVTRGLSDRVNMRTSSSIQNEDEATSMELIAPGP

| Compound | Blocking rate (%) @3 nM (Nav1.8 sodium channel) | Blocking rate(%) @10 nM (Nav1.8 sodium channel) | IC50 (Nav1.8 sodium channel) | Human liver microsomes T½ [1] | Human liver microsomes Residual (T = 60 min) [1] | Mouse liver microsomes T½ [2] | Mouse liver microsomes Residual (T = 60 min) [2] | half-life at 1 μM [1] | half-life at 1 μM [2] |
| --- | --- | --- | --- | --- | --- | --- | --- | --- | --- |
| 4-((2R,3S,4S,5R)-3-(3,4-difluoro-2-(methoxy-d3)phenyl)-4,5-dimethyl-5-(trifluoromethyl) pyrrolidine-2-carboxamido)pyridinamide [Compound 11] | 90.26% | 97.84% | 0.73 nM | 1.59 h | 60.1% | 1.24 h | 52.9% |  |  |
| COc1c([C@H]2[C@H](C(=O)Nc3ccc[n+]([O-])c3)N[C@@](C)(C(F)(F)F)[C@H]2C)ccc(F)c1F [Compound 7, 3-((2R,3S,4S,5R)-3-(3,4-difluoro-2-methoxyphenyl)-4,5-dimethyl-5-(trifluoromethyl)pyrrolidine-2-carboxamido)pyridine 1-oxide] | 67.34% | 91.89% |  |  | 74.8% |  | 75.4% | > 2.42 h | > 2.42 h |
| COc1c([C@H]2[C@H](C(=O)Nc3cccc(S(N)(=O)=O)c3)N[C@@](C)(C(F)(F)F)[C@H]2C)ccc(F)c1F [Compound 8, (2R,3S,4S,5R)-3-(3,4-difluoro-2-methoxyphenyl)-4,5-dimethyl-aza-(3-aminosulfonylphenyl)-5-(trifluoromethyl) pyrrolidine-2-carboxamide] | 93.13% | 100.00% |  | >2.42 h | 80.3% | 1.51 h | 62.9% |  |  |
| COc1c([C@H]2[C@H](C(=O)Nc3ccnc(C(N)=O)c3)O[C@@](C)(C(F)(F)F)[C@H]2C)ccc(F)c1F [VX-548, reference compound] |  |  |  |  | 70.9% |  | 56.3% | 2.2 h | 1.2 h |
